Experimental data as given in patent publication US12246034B2, “Animal feed supplement and method” (CAN TECHNOLOGIES, INC., priority 2014, dated 2025).
Where two headings read alike, the source gives them in different places.

What was measured:
[1] = for pCO2 - Measured value / pH / pO2 - Measured value: umbilical cord blood piglets
Source text: (§1) Until farrowing, sows received a fixed amount of feed (3.25 kg from day 107-113 and 2.7 kg/sow/day from day 113 till farrowing). During lactation the sows were fed the diets according to a step-up feeding schedule applied (increasing with 0.5 kg/sow/day) the same over the 6 treatments aiming at a peak intake of 7.5 kg/sow/day. Piglets were weaned from the sow at 27 days of age. Performance of sows (e.g. weight, backfat, piglets born alive, stillborn piglets, mortality of piglets) and piglets (e.g. weight at birth, after 48 hours and weaning) was measured on all sows and litters. A subset of sows (19-20 per treatment) was examined more in detail to get insight in the possible mode of action of nitrate. On this subset, blood samples were collected within 4 minutes after birth from 2 piglets out of every 4 piglets born. Blood gasses of umbilical cord blood were analyzed using the i-STAT handheld (Abbott). Vitality of piglets was scored within 30 seconds after birth according to Baxter et al. (2008) with 1 being the lowest and 4 being the highest score for vitality.

sows [2] = settings: for Probability of a higher Vitality score: scored within 30 seconds after birth; for Average weight at weaning: piglets
Description: A trial was conducted at the Sterksel Research farm in the Netherlands (part of Wageningen University Research). A total of 207 sows were used in the trial allocated based on parity over 6 treatments (n=34). […] Calcium levels were the same in all diets.
as §1

sows [3] = test system: sows
Description: A field trial was conducted on a commercial farm in Denmark with 650 highly productive Danbred sows (Landrace x Yorkshire) inseminated with a pure line Duroc boar, between Nov. 17, 2014 and Jan. 16, 2015. A total of 139 sows (total number before analyzes) were included in the trial, divided over 3 subsequent sow groups farrowing over a time span of 6 weeks. For all analyzes SAS software (version 9.3, SAS Institute Inc., Cary, N.C.) was used. Sows received a dry meal transition feed (from gestation to lactation), fed from day 111 of gestation till day 5 of lactation, and were allocated to one of the two treatment groups based on parity. […] The total amount of calcium was equal between both experimental treatments. Number born alive (NBA), stillborn and mummies, litter birth weight, as well as back fat of the sows before farrowing (day 110 of gestation) and at weaning (day 24 of lactation) were measured. Litter weights at 24 hours and 3 days after birth were measured as well. On day 3 after birth blood samples were taken from 6 piglets (2 biggest, 2 medium and 2 smallest) from 65 litters of their tails when they were cut and analyzed on immunoglobulin G (IgG) concentration. Placentas of the sows were collected after the farrowing process was finished, stored in freezers and afterwards scored on redness for an indication of the vascularization of these placentas.

[4] = 0.03% nitrate in lactation diet
[5] = 0.06% nitrate in lactation diet
[6] = 0.09% nitrate in lactation diet
[7] = 0.12% nitrate in lactation diet
[8] = 0.15% nitrate in lactation diet
[9] = across 0.03-0.15% nitrate in feed
[10] = across 0.03-0.15% nitrate in lactation diet
[11] = across 0.03-0.15% nitrate, P<0.05

In the case of `O=[N+]([O-])O` [Nitrate, nitrate], the “pCO2 - Measured value” ([1]; 0.03% nitrate in sow diet) is reported as 34.1 mmHg, the pH ([1]; 0.03% nitrate in sow diet) is reported as 7.5 and the “pO2 - Measured value” ([1]; 0.03% nitrate in sow diet) is reported as 33.8 mmHg. For the same molecule, the “pCO2 - Measured value” ([1]; 0.06% nitrate in sow diet) was 34.5 mmHg, the pH ([1]; 0.06% nitrate in sow diet) was 7.5 and the “pO2 - Measured value” ([1]; 0.06% nitrate in sow diet) was 35.4 mmHg. For the same molecule, the “pCO2 - Measured value” ([1]; 0.09% nitrate in sow diet) was 34.9 mmHg, the pH ([1]; 0.09% nitrate in sow diet) was 7.5 and the “pO2 - Measured value” ([1]; 0.09% nitrate in sow diet) was 34.5 mmHg. For the same molecule, the “pCO2 - Measured value” ([1]; 0.12% nitrate in sow diet) was 34.5 mmHg, the pH ([1]; 0.12% nitrate in sow diet) was 7.5 and the “pO2 - Measured value” ([1]; 0.12% nitrate in sow diet) was 35.6 mmHg. The “pCO2 - Measured value” ([1]; 0.15% nitrate in sow diet) was 34.8 mmHg, the pH ([1]; 0.15% nitrate in sow diet) was 7.5 and the “pO2 - Measured value” ([1]; 0.15% nitrate in sow diet) was 35.3 mmHg. For the same molecule, the “pO2 values with increasing nitrate addition” value ([1]; umbilical cord blood, across 0.03-0.15% nitrate) was “linearly improved”, the “Aver. birth weight born alive pigs” value (sows [2]; [4]) was 1308 grams and the Average livability % (sows [2]; [4]) was 76.1%. The Average mortality % (sows [2]; [4]) was 16.5%, the “Average piglet weight after 48 hours” value (sows [2]; [4]) was 1.611 kg and the Probability born alive (sows [2]; [4]) was 0.95. For the same molecule, the Probability livability (sows [2]; [4]) was 0.85, the Probability mortality (sows [2]; [4]) was 0.10 and the Probability weaned (sows [2]; [4]) was 0.91. For the same molecule, the Total born (sows [2]; [4]) was 16.8, the Total born alive (sows [2]; [4]) was 15.2 and the Total born mummified (sows [2]; [4]) was 0.6. The Total still born (sows [2]; [4]) was 1.6, the Total weaned (sows [2]; [4]) was 12.3 and the “total birth weight litter life born piglets” value (sows [2]; [4]) was 19.5 kg. The “total litter weight weaning” value (sows [2]; [4]) was 91.8 kg, the “Probability of a higher Vitality score” value (sows [2]; [4]) was 0.70 and the “Aver. birth weight born alive pigs” value (sows [2]; [5]) was 1320 grams. For the same molecule, the Average livability % (sows [2]; [5]) was 78.3%, the Average mortality % (sows [2]; [5]) was 16.2% and the “Average piglet weight after 48 hours” value (sows [2]; [5]) was 1.598 kg. For the same molecule, the Probability born alive (sows [2]; [5]) was 0.97, the Probability livability (sows [2]; [5]) was 0.86 and the Probability mortality (sows [2]; [5]) was 0.10. For the same molecule, the Probability weaned (sows [2]; [5]) was 0.91, the Total born (sows [2]; [5]) was 16.8 and the Total born alive (sows [2]; [5]) was 15.7. For the same molecule, the Total born mummified (sows [2]; [5]) was 0.7, the Total still born (sows [2]; [5]) was 1.1 and the Total weaned (sows [2]; [5]) was 12.4. The “total birth weight litter life born piglets” value (sows [2]; [5]) was 20.3 kg, the “total litter weight weaning” value (sows [2]; [5]) was 91.8 kg and the “Probability of a higher Vitality score” value (sows [2]; [5]) was 0.74. For the same molecule, the “Aver. birth weight born alive pigs” value (sows [2]; [6]) was 1329 grams, the Average livability % (sows [2]; [6]) was 81.3% and the Average mortality % (sows [2]; [6]) was 12.7%. The “Average piglet weight after 48 hours” value (sows [2]; [6]) was 1.621 kg, the Probability livability (sows [2]; [6]) was 0.89 and the Probability mortality (sows [2]; [6]) was 0.07. For the same molecule, the Probability weaned (sows [2]; [6]) was 0.94, the Total born (sows [2]; [6]) was 16.1 and the Total born mummified (sows [2]; [6]) was 0.5. For the same molecule, the Total still born (sows [2]; [6]) was 1.2, the “total birth weight litter life born piglets” value (sows [2]; [6]) was 20.2 kg and the “total litter weight weaning” value (sows [2]; [6]) was 96.9 kg. The “Probability of a higher Vitality score” value (sows [2]; [6]) was 0.80, the “Aver. birth weight born alive pigs” value (sows [2]; [7]) was 1326 grams and the Average livability % (sows [2]; [7]) was 80.0%. For the same molecule, the Average mortality % (sows [2]; [7]) was 14.0%, the “Average piglet weight after 48 hours” value (sows [2]; [7]) was 1.640 kg and the Probability born alive (sows [2]; [7]) was 0.96. It also gave a Probability livability (sows [2]; [7]) of 0.88, a Probability mortality (sows [2]; [7]) of 0.08 and a Probability weaned (sows [2]; [7]) of 0.93. It also gave a Total born (sows [2]; [7]) of 17.1, a Total born alive (sows [2]; [7]) of 15.8 and a Total born mummified (sows [2]; [7]) of 0.5. For the same molecule, the Total still born (sows [2]; [7]) was 1.3, the Total weaned (sows [2]; [7]) was 13.0 and the “total birth weight litter life born piglets” value (sows [2]; [7]) was 20.8 kg. The “total litter weight weaning” value (sows [2]; [7]) was 98.6 kg, the “Probability of a higher Vitality score” value (sows [2]; [7]) was 0.78 and the “Aver. birth weight born alive pigs” value (sows [2]; [8]) was 1355 grams. For the same molecule, the Average livability % (sows [2]; [8]) was 79.0%, the Average mortality % (sows [2]; [8]) was 14.8% and the “Average piglet weight after 48 hours” value (sows [2]; [8]) was 1.692 kg. It also gave a Probability born alive (sows [2]; [8]) of 0.96, a Probability livability (sows [2]; [8]) of 0.87 and a Probability mortality (sows [2]; [8]) of 0.09. It also gave a Probability weaned (sows [2]; [8]) of 0.92, a Total born (sows [2]; [8]) of 16.6 and a Total born alive (sows [2]; [8]) of 15.3. It also gave a Total born mummified (sows [2]; [8]) of 0.3, a Total still born (sows [2]; [8]) of 1.3 and a Total weaned (sows [2]; [8]) of 12.6. The “total birth weight litter life born piglets” value (sows [2]; [8]) was 21.0 kg, the “total litter weight weaning” value (sows [2]; [8]) was 96.8 kg and the “Probability of a higher Vitality score” value (sows [2]; [8]) was 0.79. The “Total litter weight at weaning on increasing nitrate addition” value (sows [2]; [9]) was “significantly (P<0.05) improved”, the “Vitality score of the piglets on increasing nitrate addition” value (sows [2]; [9]) was “significantly (P<0.05) improved” and the “livability, effect of higher nitrate levels” value (sows [2]; [10]) was “increase”. The “mortality, effect of higher nitrate levels” value (sows [2]; [10]) was “tended to lower”, the “weaned piglets per litter, effect of higher nitrate levels” value (sows [2]; [10]) was “more” and the “average piglet birth weight with increasing nitrate levels” value (sows [2]; [11]) was “higher”. For the same molecule, the “average piglet weight at 48 h with increasing nitrate levels” value (sows [2]; [11]) was “higher”, the “total liter birth weight with increasing nitrate levels” value (sows [2]; [11]) was “higher” and the “Probability of weaned piglets with increasing nitrate inclusion” value (sows [2]; across 0.03-0.15% nitrate, P<0.10) was “improved”. It also gave a Probability born alive (sows [2]; in vivo) of 0.96, a Total born alive (sows [2]; in vivo) of 14.9 and a Total weaned (sows [2]; in vivo) of 12.7. The “Average weight at weaning” value (sows [2]; [4]) was 7.439 kg, the “Average weight at weaning” value (sows [2]; [5]) was 7.321 kg and the “Average weight at weaning” value (sows [2]; [6]) was 7.472 kg. The “Average weight at weaning” value (sows [2]; [7]) was 7.550 kg, the “Average weight at weaning” value (sows [2]; [8]) was 7.608 kg and the “NBA (Number Born Alive)” value (sows [3]; 0.1% Bolifor CNF in transition feed, LS Means ± SEM) was “increased”. The “NBD (Number Born Death), stillborn piglets” value (sows [3]; 0.1% Bolifor CNF in transition feed, log transformed, back-transformed to absolute values) was “decreased” and the “Colostrum, CI (Colostrum Intake)” value (sows [3]; 0.1% Bolifor CNF, calculated colostrum intake) was “No differences were found”.
